# Experimental data taken from patent US10463649B2, “Inhibitors of Mc1-1 as drugs to overcome resistance to BRAF inhibitors and MEK inhibitors” (Texas Tech University System, priority 2015, dated 2019).
# Experiments:
# Mcl-1 [1] = assay: Western blotting for Mcl-1 and Cl.PARP in melanoma cells treated with PL; format: cell-based; details: SK-MEL-28 and Sk-MEL-2 cells, 5, 7.5 and 10 μM PL, 48 hours
# SK-MEL-28 cells = assay: Cell viability / cytotoxicity by sulforhodamine B (SRB) assay in SK-MEL-28 cells
# Mcl-1 [2] = assay: Western blotting and immunohistochemistry of A375-R tumors; set-up: species or system mice; details: A375-R tumors at termination of the in vivo studies, compared with control group
# Method: (§1) FIG. 5A, A375-R cells were injected subcutaneously in female athymic nude mice. Once the tumor volume reach 150 mm3, the mice were randomly divided into 4 groups (n=7 in each group) and the treatment was started as described under ‘Material and Method’ section. Tumor volumes were measure thrice a week by vernier calipers and the values were plotted as Mean±S.E.M. FIG. 5B, at day 30, the mice were sacrifice, tumors were extracted and weighed. The values are plotted as mean±S.D. *, p<0.05 as compared to control. #, p<0.05 as compared to vemurafenib treated group. $, p<0.05 as compared to TW-37 treated group. […] FIG. 5D, Formalin fixed paraffin embedded tumor sections were subjected to immunohistochemistry. Representative images of the tumor sections stained with Mcl-1, p-ERK and cleaved caspase 3.
# FIGS. 6A to 6D show silencing Mcl-1 suppresses the growth of melanoma tumors resistance to vemurafenib. FIG. 6A, A375-R cells were injected subcutaneously in female athymic nude mice. […]
# Tumor Therapy. […] Tumor measurements were taken thrice a week by vernier calipers and the volume was calculated by the formula V=length*(breadth)2/2 as previously described (28-30). […]
# Immunohistochemistry. Expression of Mcl-1, Cleaved Caspase 3 and p-ERK in tumor samples were analyzed by immunohistochemistry in paraffin sections five mice from each group. […]
# A375-R cells [3] = assay: SRB cell survival in vemurafenib resistant A375-R cells; format: cell-based; details: A375-R cells, 500 nM TW-37 alone
# Method: (§2) Each study was performed three times independently. Mcl-1 inhibitor overcomes vemurafenib resistance in melanoma cells. […] The cell survival was evaluated by sulforhodamine B assay.
# (§3) FIGS. 4A to 4D show the silencing Mcl-1 reverses vemurafenib resistance. […] The cell survival was evaluated by sulforhodamine B assay.
# (§4) Generation of BRAF-inhibitor resistant cell lines. Vemurafenib resistant clones of A375 and SK-MEL-28 were generated by continuous exposure of cells to escalating concentrations of vemurafenib over a period of one year. The cells were treated with vemurafenib for 72 hours after which fresh media was added to the cells. In all, cells were exposed weekly to two treatments of vemurafenib for 72 hours each with a 24 hour recovery period between the treatments. […] Similarly, dabrafenib resistant cells were cultured by incubating the cells with increasing concentrations of the drug for a period of 3 months as described above. The fold resistant was intermittently evaluated by cytotoxicity analysis. Vemurafenib resistant cell lines were referred to as SK-MEL-28-R or A375-R and dabrafenib resistant cell lines were referred to as A375-DR, SK-MEL-28-DR or WM-239-DR. […] Here, A375 cells were injected subcutaneously in nude mice. When palpable tumors were formed, the mice were orally treated with 30 mg/kg vemurafenib twice a day. After a month, the tumors the resisted vemurafenib treatments were extracted and cultured in vitro.
# (§5) Mcl-1 silencing. Silencing of Mcl-1 was achieved according to the protocol described by the inventors (27). Briefly, 0.3×10^6 cells were plated in OPTI-MEM without antibiotics and transfected with either Mcl-1 siRNA or scrambled siRNA. Complexes were prepared by incubating […] siRNA with 8 μl siPORT transfection reagent in 200 μl OPTI-MEM media without serum or antibiotic for 20 minutes. These complexes were then added to the cells. Six hours after transfection, complexes were replaced with fresh medium.
# A375-R cells [4] = assay: Tumor therapy: A375-R xenografts in athymic nude mice; format: in vivo
# Method: as §1
# FIGS. 6A to 6D show silencing Mcl-1 suppresses the growth of melanoma tumors resistance to vemurafenib. FIG. 6A, A375-R cells were injected subcutaneously in female athymic nude mice. Once the tumor volume reach 150 mm3, the mice were randomly divided into 4 groups (n=6 in each group) and the treatment was started as described under ‘Material and Method’ section. Tumor volumes were measure thrice a week by vernier calipers and the values were plotted as Mean±S.E.M. FIG. 6B, at day 30, the mice were sacrifice, tumors were extracted and weighed. The values are plotted as mean±S.D. *, p<0.05 as compared to control. #, p<0.05 as compared to vemurafenib treated group. $, p<0.05 as compared to TW-37 treated group. […] FIG. 6D, Formalin fixed paraffin embedded tumor sections were subjected to immunohistochemistry. Representative images of the tumor sections stained with Mcl-1, p-ERK and cleaved caspase 3.
# Tumor Therapy. All the studies involving animals were approved by the Institutional Animal Care and Use Committee. About 5-6 weeks old athymic nude mice (Charles River, Wilmington, Mass., USA) were allowed to acclimatize for one week prior to the beginning of the studies. Mice were injected subcutaneously with 3.5×10^6 A375-R cells. When the tumor volume reached to 150 mm3, mice were randomly segregated into several groups with 6-7 mice in each group. Vemurafenib, formulated as MBP was suspended at a desired concentration in a vehicle containing 2% Klucel LF and adjusted to pH 4 with HCl, was given at a dose of 25 mg/kg twice a day through oral gavage. TW-37 in PBS/ethanol/Tween 80 was administered intraperitonially at a dose of 30 mg/kg thrice a week. Mcl-1 or scrambled siRNA was administered twice a week directly into the tumors (intra-tumoral injection) as described by the inventors previously (27). Tumor measurements were taken thrice a week by vernier calipers and the volume was calculated by the formula V=length*(breadth)2/2 as previously described (28-30). At the end of the study, animals were sacrificed and tumors were excised and fixed in formalin for immunohistochemistry or flash frozen in liquid nitrogen for western blotting analysis as described previously by the inventors (31).
# SK-MEL-28-R cells = assay: SRB cell survival in vemurafenib resistant SK-MEL-28-R cells; format: cell-based; details: SK-MEL-28-R cells, 500 nM TW-37 alone
# Method: as §2, §3, §4, §5
# A375 cells = assay: Cell viability / cytotoxicity by sulforhodamine B (SRB) assay in A375 cells
# Method: Each study was performed three times independently.
# Mcl-1 [5] = assay: Western blotting for Mcl-1 expression in melanoma cells treated with dabrafenib and trametinib; format: cell-based; details: A375, SK-MEL-28, SK-MEL-5 and WM-239 cells, 72 hours; dabrafenib 10 nM
# Method: (§6) A375, SK-MEL-28, SK-MEL-5 and WM-239 were treated (FIG. 7A) dabrafenib and trametinib and (FIG. 7B) vemurafenib and trametinib for 72 hours. Following the treatment, Mcl-1 expression was analyzed by western blotting.
# A combination of BRAF inhibitor (dabrafenib) and MEK1/2 inhibitor (trametinib) for the treatment of late phase malignant melanoma has been approved by the FDA.
# SK-MEL-28-DR cells = assay: SRB cytotoxicity in dabrafenib resistant SK-MEL-28-DR cells; format: cell-based; details: 72 hours
# Method: as §6, §4
# WM-239-DR cells = assay: SRB cytotoxicity in dabrafenib resistant WM-239-DR cells; format: cell-based; details: 72 hours
# Method: as §6, §4
# WM-239 cells = assay: SRB cytotoxicity in WM-239 cells; format: cell-based; details: 72 hours, read-out: IC50 of dabrafenib
# A375-DR cells = assay: SRB cytotoxicity in dabrafenib resistant A375-DR cells; format: cell-based; details: 72 hours
# Method: as §6, §4
# [6] = tested on: SK-MEL-28 cells transfected with Mcl-1 plasmid; assay: SRB cell survival in SK-MEL-28 cells transfected with Mcl-1 plasmid; format: cell-based; details: SK-MEL-28 transfected with Mcl-1 plasmid, 10 nM dabrafenib, 2 nM trametinib or the combination, 72 hours
# Method: FIG. 3A (A375 cells) and FIG. 3B SK-MEL-28 cells untransfected or transfected with Mcl-1 plasmid were treated with 0.2 μM and 0.4 μM vemurafenib for 72 hours. The cell survival was evaluated by sulforhodamine B assay. […] FIG. 3E A375 and A375-Mcl-1+/+ or FIG. 3F, SK-MEL-28 and SK-MEL-28-Mcl-1+/+ were treated with 0.2 μM and 0.4 μM vemurafenib for 72 hours. The cell survival was evaluated by sulforhodamine B assay.
# FIG. 8A (A375) and FIG. 8B (SK-MEL-28) untransfected or transfected with Mcl-1 plasmid were treated with 10 nM dabrafenib or 2 nM trametinib for 72 hours. FIG. 8C A375 and FIG. 8D SK-MEL 28 cells untransfected or transfected with Mcl-1 plasmid were treated with 400 nM vemurafenib or 2 nM trametinib for 72 hours. The cell survival was evaluated by sulforhodamine B assay.
# Mcl-1 overexpression. A375 or SK-MEL-28 cells were transiently or stably transfected with plasmid overexpressing Mcl-1 by nucleofection kit (Lonza, Basel, Switzerland) according to manufacturer's protocol and previously described by the inventors (26). Briefly, 2×10^6 cells were suspended in a reaction mixture from the kit specific to the cell line (Kit V for A375 and Kit R for SK-MEL-28 cells). The cells were transferred to the cuvettes and nucleofected using the nucleofector instrument (Amaxa, Cologne, Germany). […]
structure (smiles),measurement,setting,value
COc1cc(/C=C/C(=O)N2CCC=CC2=O)cc(OC)c1OC [PL],Inhibition of Mcl-1 (western blotting),Mcl-1 [1],inhibits Mcl-1
CC(C)c1ccccc1Cc1cc(C(=O)Nc2ccc(S(=O)(=O)c3ccccc3C(C)(C)C)cc2)c(O)c(O)c1O [TW-37],Decrease of cell viability,SK-MEL-28 cells; 500 nM TW-37 alone,58%
same,Expression of Mcl-1 in tumors (western blotting and immunohistochemistry),Mcl-1 [2],diminished expression of Mcl-1
same,Decrease of cell survival,A375-R cells [3],25%
same,Average tumor volume,"A375-R cells [4]; day 30, vemurafenib 25 mg/kg twice a day oral, TW-37 30 mg/kg i.p. thrice a week, Mcl-1 siRNA intratumoral twice a week",870±187.8 mm3
same,Reduction in tumor growth (tumor volume) as compared to control,"A375-R cells [4]; day 30, versus control group",48%
same,Reduction in tumor growth (tumor volume) as compared to vemurafenib treated group,"A375-R cells [4]; day 30, versus vemurafenib group",46%
same,Reduction of tumor weight as compared to control,"A375-R cells [4]; tumors weighed at day 30, versus control",47%
same,Reduction of tumor weight as compared to vemurafenib treated group,"A375-R cells [4]; tumors weighed at day 30, versus vemurafenib group",48%
same,Reduction of growth,SK-MEL-28-R cells,25%
same,Decrease of cell viability,"A375 cells; A375 cells, 500 nM TW-37 alone",60%
CC(C)(C)c1nc(-c2cccc(NS(=O)(=O)c3c(F)cccc3F)c2F)c(-c2ccnc(N)n2)s1 [dabrafenib],IC50,"SK-MEL-28 cells; read-out: IC50 of dabrafenib, 72 hours",2 nM
same,Expression of Mcl-1 (western blotting),Mcl-1 [5],significantly induced the expression of Mcl-1
same,IC50,SK-MEL-28-DR cells,> 100 nM
same,IC50,WM-239-DR cells,> 100 nM
same,IC50,WM-239 cells,6 nM
same,IC50,A375-DR cells,> 100 nM
same,Reduction in cell survival upon Mcl-1 overexpression,[6],completely blocked the effect
same,IC50,"A375 cells; Homo sapiens, A-375, 72 h, read-out: IC50 of dabrafenib",5 nM
